Like-named read-outs stand apart in the source and are kept apart here.
Legend:
Assay in all cases: Kinase selectivity, scanMAX Kinase assay panel (DiscoverX), % control at 1 uM
Assay type in all cases: binding
[1] = target: T1, scanMAX Kinase assay panel (Plasmodium falciparum, UniProt P62344); details: PFCDPK1 (P. falciparum); 1 uM; read-out: Percent Control (%)
T1 construct: purchased DiscoverX
Method in brief: (§1)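 Binding across the scanMAX kinase panel was tested at 1 uM compound. % control = (compound − positive control)/(negative control − positive control) × 100; below 35 counted as active.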

[2] = target: T2, scanMAX Kinase assay panel (Homo sapiens, UniProt Q9UBE8); details: NLK; 1 uM; read-out: Percent Control (%)
T2 construct: purchased DiscoverX
T2 sequence (Q9UBE8 1-527): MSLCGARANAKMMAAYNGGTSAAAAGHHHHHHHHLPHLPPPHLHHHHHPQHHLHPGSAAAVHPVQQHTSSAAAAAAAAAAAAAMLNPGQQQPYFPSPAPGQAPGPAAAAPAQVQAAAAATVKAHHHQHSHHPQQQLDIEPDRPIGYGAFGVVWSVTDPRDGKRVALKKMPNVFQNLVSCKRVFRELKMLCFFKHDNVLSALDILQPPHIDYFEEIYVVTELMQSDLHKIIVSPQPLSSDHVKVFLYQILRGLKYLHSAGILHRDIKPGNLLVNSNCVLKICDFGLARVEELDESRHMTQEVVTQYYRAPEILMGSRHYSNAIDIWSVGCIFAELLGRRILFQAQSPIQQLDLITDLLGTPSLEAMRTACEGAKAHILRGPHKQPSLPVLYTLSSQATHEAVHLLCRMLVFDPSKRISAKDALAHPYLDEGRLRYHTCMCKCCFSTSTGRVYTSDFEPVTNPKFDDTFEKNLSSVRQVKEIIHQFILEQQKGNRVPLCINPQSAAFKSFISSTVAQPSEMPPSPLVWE
Method in brief: as §1

[3] = target: T3, scanMAX Kinase assay panel (Homo sapiens, UniProt P11309); details: PIM1; 1 uM; read-out: Percent Control (%)
T3 construct: purchased DiscoverX
Method in brief: as §1

[4] = target: T4, scanMAX Kinase assay panel (Homo sapiens, UniProt O60674); details: JAK2 (JH1domain-catalytic); 1 uM; read-out: Percent Control (%)
T4 construct: purchased DiscoverX
Method in brief: as §1

[5] = target: T5, scanMAX Kinase assay panel (Homo sapiens, UniProt O75676); details: 1 uM, read-out: Percent Control (%)
T5 construct: purchased DiscoverX
Method in brief: as §1

[6] = target: T6, scanMAX Kinase assay panel (Homo sapiens, UniProt P36507); details: MEK2; 1 uM; read-out: Percent Control (%)
T6 construct: purchased DiscoverX
Method in brief: as §1

[7] = target: T7, scanMAX Kinase assay panel (Homo sapiens, UniProt Q08881); details: ITK; 1 uM; read-out: Percent Control (%)
T7 construct: purchased DiscoverX
T7 sequence (Q08881 1-620): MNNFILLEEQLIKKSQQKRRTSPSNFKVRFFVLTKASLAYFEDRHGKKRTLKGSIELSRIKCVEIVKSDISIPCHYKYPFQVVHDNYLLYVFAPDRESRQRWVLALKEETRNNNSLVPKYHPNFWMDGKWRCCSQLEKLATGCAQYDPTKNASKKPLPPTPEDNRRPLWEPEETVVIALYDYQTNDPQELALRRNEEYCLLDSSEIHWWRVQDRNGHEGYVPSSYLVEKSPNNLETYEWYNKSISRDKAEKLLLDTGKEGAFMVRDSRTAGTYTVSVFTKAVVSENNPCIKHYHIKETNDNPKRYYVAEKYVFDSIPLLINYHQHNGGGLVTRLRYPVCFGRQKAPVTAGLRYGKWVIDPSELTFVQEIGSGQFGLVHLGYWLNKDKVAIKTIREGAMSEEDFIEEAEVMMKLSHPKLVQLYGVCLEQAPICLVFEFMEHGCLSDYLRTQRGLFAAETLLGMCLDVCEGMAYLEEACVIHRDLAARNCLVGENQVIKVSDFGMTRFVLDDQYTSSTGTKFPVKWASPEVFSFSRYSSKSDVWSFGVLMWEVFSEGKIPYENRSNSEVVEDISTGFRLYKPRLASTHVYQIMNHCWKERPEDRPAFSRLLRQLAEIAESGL
Method in brief: as §1

[8] = target: T8, scanMAX Kinase assay panel (Homo sapiens, UniProt P29320); details: EPHA3; 1 uM; read-out: Percent Control (%)
T8 construct: purchased DiscoverX
T8 sequence (P29320 21-983): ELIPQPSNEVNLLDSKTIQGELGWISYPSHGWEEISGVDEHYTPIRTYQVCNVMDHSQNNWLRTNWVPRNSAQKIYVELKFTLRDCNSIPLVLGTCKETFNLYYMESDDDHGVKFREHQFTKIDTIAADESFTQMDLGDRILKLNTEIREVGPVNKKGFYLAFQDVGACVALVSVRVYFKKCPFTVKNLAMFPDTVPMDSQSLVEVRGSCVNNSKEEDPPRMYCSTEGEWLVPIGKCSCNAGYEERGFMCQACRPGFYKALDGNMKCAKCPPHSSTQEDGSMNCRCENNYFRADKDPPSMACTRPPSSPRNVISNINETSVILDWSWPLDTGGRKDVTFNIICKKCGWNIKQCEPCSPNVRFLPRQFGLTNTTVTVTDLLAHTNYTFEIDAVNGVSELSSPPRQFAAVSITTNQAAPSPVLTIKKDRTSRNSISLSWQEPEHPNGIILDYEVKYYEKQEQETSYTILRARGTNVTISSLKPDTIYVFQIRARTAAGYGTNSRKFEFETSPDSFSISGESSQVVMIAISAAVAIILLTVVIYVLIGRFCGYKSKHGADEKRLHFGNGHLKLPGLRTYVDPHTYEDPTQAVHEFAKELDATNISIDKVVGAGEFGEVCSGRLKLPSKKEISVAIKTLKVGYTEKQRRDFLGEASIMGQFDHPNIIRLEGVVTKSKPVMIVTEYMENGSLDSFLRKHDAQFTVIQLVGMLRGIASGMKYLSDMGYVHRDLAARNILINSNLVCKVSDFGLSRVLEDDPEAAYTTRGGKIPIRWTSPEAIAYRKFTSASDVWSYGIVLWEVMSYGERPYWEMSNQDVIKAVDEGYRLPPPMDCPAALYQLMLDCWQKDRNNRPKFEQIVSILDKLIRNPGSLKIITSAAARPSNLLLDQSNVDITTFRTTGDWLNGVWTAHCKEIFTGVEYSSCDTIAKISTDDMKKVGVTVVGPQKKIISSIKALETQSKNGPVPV
Method in brief: as §1

T6 sequence (P36507 whole entry): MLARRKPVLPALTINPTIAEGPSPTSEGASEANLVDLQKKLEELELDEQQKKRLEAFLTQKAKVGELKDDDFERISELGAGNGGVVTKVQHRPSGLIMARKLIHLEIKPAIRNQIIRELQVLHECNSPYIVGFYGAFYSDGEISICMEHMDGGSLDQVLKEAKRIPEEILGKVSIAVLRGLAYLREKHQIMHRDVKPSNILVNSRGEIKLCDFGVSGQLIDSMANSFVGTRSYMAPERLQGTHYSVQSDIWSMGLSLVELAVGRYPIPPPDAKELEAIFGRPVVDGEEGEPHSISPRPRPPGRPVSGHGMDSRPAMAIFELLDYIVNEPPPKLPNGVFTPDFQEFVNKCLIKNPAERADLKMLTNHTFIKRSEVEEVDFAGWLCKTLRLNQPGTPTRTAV
T1 sequence (P62344 whole entry): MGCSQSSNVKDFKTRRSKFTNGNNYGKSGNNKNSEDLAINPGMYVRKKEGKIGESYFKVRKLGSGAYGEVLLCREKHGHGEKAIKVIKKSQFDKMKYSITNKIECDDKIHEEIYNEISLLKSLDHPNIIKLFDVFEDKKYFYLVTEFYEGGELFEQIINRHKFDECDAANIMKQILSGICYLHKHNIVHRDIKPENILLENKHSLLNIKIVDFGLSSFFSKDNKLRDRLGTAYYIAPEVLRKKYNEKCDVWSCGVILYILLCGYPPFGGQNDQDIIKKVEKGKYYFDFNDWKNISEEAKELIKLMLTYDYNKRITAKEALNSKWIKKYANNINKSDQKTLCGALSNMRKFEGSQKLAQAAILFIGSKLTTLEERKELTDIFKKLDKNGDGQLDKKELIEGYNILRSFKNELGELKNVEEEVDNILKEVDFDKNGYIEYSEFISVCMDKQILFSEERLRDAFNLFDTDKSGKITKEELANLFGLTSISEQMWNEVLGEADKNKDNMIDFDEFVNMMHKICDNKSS
T3 sequence (P11309 whole entry): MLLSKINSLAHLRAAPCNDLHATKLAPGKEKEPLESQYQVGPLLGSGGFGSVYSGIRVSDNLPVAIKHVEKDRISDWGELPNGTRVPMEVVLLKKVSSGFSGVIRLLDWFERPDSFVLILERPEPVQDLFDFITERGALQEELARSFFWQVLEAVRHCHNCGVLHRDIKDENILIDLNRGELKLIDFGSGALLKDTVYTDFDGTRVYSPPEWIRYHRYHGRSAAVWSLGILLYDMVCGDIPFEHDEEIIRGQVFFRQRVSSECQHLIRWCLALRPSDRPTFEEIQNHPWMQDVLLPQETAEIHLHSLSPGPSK
T4 sequence (O60674 whole entry): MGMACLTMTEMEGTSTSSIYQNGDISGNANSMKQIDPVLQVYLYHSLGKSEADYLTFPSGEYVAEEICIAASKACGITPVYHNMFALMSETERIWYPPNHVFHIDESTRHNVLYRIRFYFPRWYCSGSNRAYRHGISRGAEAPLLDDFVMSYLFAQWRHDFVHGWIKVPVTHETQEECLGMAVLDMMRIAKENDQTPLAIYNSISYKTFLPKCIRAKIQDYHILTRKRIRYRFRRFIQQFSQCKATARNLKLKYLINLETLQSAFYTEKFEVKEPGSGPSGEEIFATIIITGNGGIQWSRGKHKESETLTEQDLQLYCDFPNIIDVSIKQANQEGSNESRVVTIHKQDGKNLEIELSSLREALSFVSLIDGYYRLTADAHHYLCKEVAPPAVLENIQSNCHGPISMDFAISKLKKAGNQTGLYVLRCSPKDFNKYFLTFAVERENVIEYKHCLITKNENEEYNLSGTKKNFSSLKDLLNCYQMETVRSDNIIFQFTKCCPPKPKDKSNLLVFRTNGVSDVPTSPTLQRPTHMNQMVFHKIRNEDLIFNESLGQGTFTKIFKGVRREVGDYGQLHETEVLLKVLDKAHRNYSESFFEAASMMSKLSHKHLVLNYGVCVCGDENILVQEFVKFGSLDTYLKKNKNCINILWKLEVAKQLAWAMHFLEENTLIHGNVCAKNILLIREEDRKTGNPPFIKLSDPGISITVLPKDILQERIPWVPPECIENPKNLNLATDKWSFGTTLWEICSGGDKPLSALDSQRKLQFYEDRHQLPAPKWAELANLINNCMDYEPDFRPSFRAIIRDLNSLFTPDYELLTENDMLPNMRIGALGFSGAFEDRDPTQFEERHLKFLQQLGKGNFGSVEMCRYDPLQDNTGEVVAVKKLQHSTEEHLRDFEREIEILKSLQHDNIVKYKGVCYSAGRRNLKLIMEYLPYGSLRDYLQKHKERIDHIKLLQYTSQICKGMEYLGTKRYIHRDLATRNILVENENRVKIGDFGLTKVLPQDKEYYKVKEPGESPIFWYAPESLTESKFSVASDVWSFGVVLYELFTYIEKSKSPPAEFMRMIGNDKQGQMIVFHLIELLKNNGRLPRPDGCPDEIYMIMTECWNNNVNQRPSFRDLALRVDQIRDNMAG
T5 sequence (O75676 whole entry): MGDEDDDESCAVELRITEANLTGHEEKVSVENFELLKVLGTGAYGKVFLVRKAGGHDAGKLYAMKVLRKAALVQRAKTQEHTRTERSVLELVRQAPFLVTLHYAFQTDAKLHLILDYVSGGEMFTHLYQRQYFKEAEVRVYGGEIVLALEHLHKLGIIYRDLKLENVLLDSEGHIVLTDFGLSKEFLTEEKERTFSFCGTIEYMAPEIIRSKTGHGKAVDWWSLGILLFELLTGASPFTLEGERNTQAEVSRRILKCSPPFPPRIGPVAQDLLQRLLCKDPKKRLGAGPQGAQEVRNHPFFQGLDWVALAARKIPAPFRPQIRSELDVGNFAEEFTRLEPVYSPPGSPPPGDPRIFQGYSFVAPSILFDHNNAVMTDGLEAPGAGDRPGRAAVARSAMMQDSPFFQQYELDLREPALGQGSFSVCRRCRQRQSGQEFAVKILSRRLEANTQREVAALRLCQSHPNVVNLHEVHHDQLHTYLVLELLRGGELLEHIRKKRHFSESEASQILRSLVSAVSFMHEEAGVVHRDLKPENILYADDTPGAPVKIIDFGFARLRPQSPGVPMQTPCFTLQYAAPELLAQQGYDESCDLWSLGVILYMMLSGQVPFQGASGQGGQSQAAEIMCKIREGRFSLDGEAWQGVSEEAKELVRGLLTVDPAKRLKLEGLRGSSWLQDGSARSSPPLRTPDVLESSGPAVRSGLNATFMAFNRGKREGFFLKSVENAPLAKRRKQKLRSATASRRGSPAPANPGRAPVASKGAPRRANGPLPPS

SMILES | remaining binding at 1 µM [1] [%] | remaining binding at 1 µM [2] [%] | remaining binding at 1 µM [3] [%] | remaining binding at 1 µM [4] [%] | remaining binding at 1 µM ([5]; RPS6KA4 (Kin.Dom.1-N-terminal)) [%] | remaining binding at 1 µM ([5]; RPS6KA4 (Kin.Dom.2-C-terminal)) [%] | remaining binding at 1 µM [6] [%] | remaining binding at 1 µM [7] [%] | remaining binding at 1 µM [8] [%]
Cc1ccc(C(=O)Nc2ccc(CN3CCN(C)CC3)c(C(F)(F)F)c2)cc1C#Cc1cnc2c(Nc3cnn(C)c3)cccn12 [Example 1, 4-methyl-3-((8-((1-methyl-1H-pyrazol-4-yl)amino)imidazo[1,2-a]pyridin-3-yl)ethynyl)-N-(4-((4-methylpiperazin-1-yl)methyl)-3-(trifluoromethyl)phenyl)benzamide] | 1 | 24 | 82 | 7 | 31 | 94 | 76 | 0 | 19
Cc1cn(-c2cc(NC(=O)c3ccc(C)c(C#Cc4cnc5c(Nc6cnn(C)c6)cccn45)c3)cc(C(F)(F)F)c2)cn1 [Example 12, 4-methyl-N-(3-(4-methyl-1H-imidazol-1-yl)-5-(trifluoromethyl)phenyl)-3-((8-((1-methyl-1H-pyrazol-4-yl)amino)imidazo[1,2-a]pyridin-3-yl)ethynyl)benzamide] | 55 | 15 | 92 | 100 | 85 | 100 | 88 | 69 | 27
Cc1ccc(NC(=O)C2(C(=O)Nc3ccc(F)cc3)CC2)cc1C#Cc1cnc2c(Nc3cnn(C(C)C)c3)cccn12 [Example 78] | 97 | 50 | 100 | 98 | 94 | 78 | 97 | 97 | 76
